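Protocol summary: plate cells (96-well), add compound at 5 concentrations, incubate 48 h, interpolate endpoints linearly. TGI: concentration producing complete growth inhibition.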
Key:
Assay in all cases: NCI-60 cell line screen, 48 h
NCI-H460 lung = tested on: NCI-H460 lung
BT-549 breast = tested on: BT-549 breast
HCT-116 colon = tested on: HCT-116 colon
SNB-78 CNS = tested on: SNB-78 CNS
RPMI-8226 leukemia = tested on: RPMI-8226 leukemia
DMS 273 small cell lung = tested on: DMS 273 small cell lung
A549 NSCLC = tested on: A549 NSCLC
DLD-1 colon = tested on: DLD-1 colon
M19-MEL melanoma = tested on: M19-MEL melanoma
OVCAR-5 ovarian = tested on: OVCAR-5 ovarian
XF 498 CNS = tested on: XF 498 CNS
HOP-18 NSCLC = tested on: HOP-18 NSCLC
HS 578T breast = tested on: HS 578T breast

Structure (SMILES)	TGI (NCI-H460 lung) [µM]	TGI (BT-549 breast) [µM]	TGI (HCT-116 colon) [µM]	TGI (SNB-78 CNS) [µM]	TGI (RPMI-8226 leukemia) [µM]	TGI (DMS 273 small cell lung) [µM]	TGI (A549 NSCLC) [µM]	TGI (DLD-1 colon) [µM]	TGI (M19-MEL melanoma) [µM]	TGI (OVCAR-5 ovarian) [µM]	TGI (XF 498 CNS) [µM]	TGI (HOP-18 NSCLC) [µM]	TGI (HS 578T breast) [µM]
C=C1C(C)C2C(Cc3ccccc3)NC(=O)C23C(OC(C)=O)/C=C/C(C)(O)CC(C)C/C=C/C3C1O (stereo not given)	> 95.2	> 47.3	> 100	1.3	71.2	> 82	> 100	> 100	> 100	> 100	8.29	0.814	0.62
CC1(C)OCN(c2ccc(Cl)cc2)Cn2c1nc1ccccc12	> 100	> 100	> 100	> 100	> 100	> 100	> 100	> 100	> 100	> 100	> 100	> 100	

— PubChem BioAssay (NCI)
